Molecules are shown by their SMILES.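 Tested at 5 concentrations; 48 h exposure; 96-well plates; endpoints linearly interpolated, else capped at highest concentration. TGI: total growth inhibition.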

The text below walks through data of PubChem BioAssay (NCI).

Holding throughout (assay): NCI-60 cell line screen, 48 h
Test [1] relates to HL-60(TB) leukemia.
The subject of test [2] is NCI-H522 lung.
In test [3] the test system is HCT-15 colon.
Test [4] has as its system NCI-H23 lung.
In test [5] the test system is MOLT-4 leukemia.
The subject of test [6] is EKVX NSCLC.
In test [7] the test system is COLO 205 colon.
Test [8] concerns SNB-75 CNS.
The test system of test [9] is BT-549 breast.
Test [10] deals with PC-3 prostate.
For test [11], the system named is HT29 colon.

`Nc1ccc(-c2nc3cc(F)ccc3s2)cc1I`: the TGI in test [1] is greater than 100 µM; in [2] it was 33.2 µM; in test [3] it was greater than 66.5 µM; in test [4], 18.9 µM; in test [5], greater than 100 µM; in [6] it was 43.9 µM. Also, the TGI was greater than 100 µM in [7]; 33.8 µM in [8]; 29.9 µM in test [9]; greater than 100 µM in test [10]; greater than 100 µM in [11].
As for `O=C(NCCCCNCCCNC(=O)c1ccccc1)c1ccccc1`, the TGI in [1], in test [2], in test [3], in test [4], in test [5] and in test [6] was greater than 100 µM each time. The TGI in test [7], in test [8], in test [9], in test [10] and in test [11] was greater than 100 µM each time.
Turning to `CC(=Nc1c2ccccc2nc2ccccc12)N(C)C`, the TGI in test [1] is 24 µM; in test [2], 25.5 µM; in test [3], greater than 100 µM; in test [4], 41.1 µM; in test [5], 44.8 µM; in test [6], greater than 100 µM. For the same molecule, the TGI in [7] came to 25.2 µM; in test [8], 71 µM; in test [9], 90.7 µM; in [10], 46.8 µM; in test [11] it was 27.4 µM.
For the molecule `COC(=O)c1ccc(CCc2cc(O)ccc2O)cc1`, the TGI in test [1] was 5.96 µM; in [2], 2.16 µM; in test [3], 27.5 µM; in test [4], greater than 54.9 µM; in [5], 15.3 µM; in test [6], 32.4 µM. Besides, the TGI in [7] was 54.5 µM; in test [8] it was 21.2 µM; in [9], 25.6 µM; in test [10] it was 17.5 µM; in test [11], greater than 79.9 µM.
Take `NCCNCCCCCCNC(=O)c1cccc2cc3ccccc3nc12`: the TGI in test [1] worked out at 3.51 µM; in [2] it was 4.52 µM; in test [3], 25.5 µM; in [4], 6.81 µM; in test [5], 4.47 µM; in [6] it was 20.9 µM. Moreover, the TGI in test [7] was 13.2 µM; in [8], 11.8 µM; in [9], 25.2 µM; in [10], 8.79 µM; in test [11], 3.77 µM.
For the molecule `O=C1C=C2CO[C@H]3OC[C@H](O)[C@@H]1[C@@H]23`, the TGI in [1] is 76.1 µM; in test [2], 33.1 µM; in test [3], greater than 100 µM; in test [4], greater than 100 µM; in test [5] it was greater than 100 µM; in test [6] it was greater than 100 µM. Besides, the TGI is 30 µM in test [7]; greater than 100 µM in [8]; greater than 100 µM in test [9]; greater than 100 µM in test [10]; greater than 100 µM in test [11].
As for `Cc1cc(Nc2ccc(N=Nc3ccc(O)c4ncccc34)cc2)nc(C)n1`, the TGI is 16.5 µM in test [1]; 55 µM in test [2]; 36 µM in test [3]; greater than 54.2 µM in test [4]; 48.3 µM in [5]; greater than 79.3 µM in [6]. Besides, the TGI in test [7] is 40.4 µM; in test [8], 43.6 µM; in test [9], greater than 84.4 µM; in [10] it was greater than 69.9 µM; in test [11], greater than 75.2 µM.
Consider `COc1ccc(/C=C2\CC3C4CC=C5C[C@@H](O)CC[C@]5(C)C4CC[C@]3(C)\C2=N\O)cc1OC` (some centres not stated), for which the TGI in test [1], in [2], in test [3], in [4], in [5] and in [6] was greater than 100 µM throughout. Moreover, the TGI in [7] was 67.1 µM; in test [8], greater than 100 µM; in test [9] it was greater than 100 µM; in test [10] it was greater than 100 µM; in [11], greater than 100 µM.
With `Cc1cc(NS(=O)(=O)c2ccc(NC(=O)c3cccc4c(NNc5ccc(S(=O)(=O)N=C(N)N)cc5)c5ccccc5nc34)cc2)no1`, the TGI in [1] was 75.6 µM; in test [2] it was 96.6 µM; in test [3], greater than 100 µM; in test [4], greater than 100 µM; in test [5] it was 74.9 µM; in test [6] it was 93.2 µM. In addition, the TGI in [7] is greater than 100 µM; in test [8], 88.3 µM; in [9], greater than 100 µM; in [10], greater than 100 µM; in [11], 92.6 µM.
Regarding `O=c1[nH]c2cc3cccnc3c(Cl)c2nc1C(F)(F)F`, the TGI was greater than 100 µM in test [1]; greater than 100 µM in test [2]; greater than 100 µM in [3]; greater than 100 µM in test [4]; 83.2 µM in [5]; greater than 100 µM in test [6]. Moreover, the TGI was greater than 100 µM in test [7]; 90.1 µM in [8]; 86.7 µM in test [9]; greater than 100 µM in test [10]; greater than 100 µM in test [11].
Take `c1cc(C[S+]2CCCC2)ccc1C[S+]1CCCC1`: the TGI in test [1], in [2], in [3], in test [4], in test [5] and in test [6] was greater than 100 µM throughout. Besides, the TGI in [7], in test [8], in test [9], in [10] and in test [11] was greater than 100 µM throughout.
Regarding `O=C(NC1(C(=O)NNc2nnc(-c3ccccc3)c(-c3ccccc3)n2)C(c2ccccc2)C(c2ccccc2)=NN1c1ccccc1)c1ccccc1` (configuration not stated), the TGI in [1], in test [2], in test [3], in test [4], in [5] and in test [6] was greater than 100 µM in each case. Moreover, the TGI in test [7], in test [8], in test [9], in test [10] and in test [11] was greater than 100 µM in each case.
